For this assay, the target named is T1, Human M4 (Homo sapiens, UniProt P08173).
T1 construct: expressed in transfected cells
T1 sequence (P08173 1-479): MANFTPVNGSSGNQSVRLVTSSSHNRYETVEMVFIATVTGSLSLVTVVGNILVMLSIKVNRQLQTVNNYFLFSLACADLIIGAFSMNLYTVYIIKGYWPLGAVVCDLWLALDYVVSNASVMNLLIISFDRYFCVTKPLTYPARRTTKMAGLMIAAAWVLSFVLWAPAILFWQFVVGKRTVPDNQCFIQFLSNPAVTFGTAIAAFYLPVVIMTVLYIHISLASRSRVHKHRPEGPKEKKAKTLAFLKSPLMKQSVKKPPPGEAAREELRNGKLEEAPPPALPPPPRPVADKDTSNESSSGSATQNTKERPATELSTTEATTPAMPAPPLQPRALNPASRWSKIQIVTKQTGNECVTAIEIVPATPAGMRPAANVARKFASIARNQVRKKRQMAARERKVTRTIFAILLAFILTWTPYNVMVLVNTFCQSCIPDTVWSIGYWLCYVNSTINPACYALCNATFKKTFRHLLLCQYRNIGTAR
In words: mAChR M4 cell-based functional assay (calcium flux, potentiation of EC20 acetylcholine response), hM4-Gqi5 CHO-K1 cells. The conditions noted are these: for Emax at 30 µM: CHO-K1, % ACh maximum at 30 μM; for EC50: calcium flux, read-out: Human M4 EC50. An outline of the steps:
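Positive allosteric modulation was scored as a concentration-dependent rise in the response to an EC20 dose of acetylcholine, added 144 s after the compound. Human M4-Gqi5 CHO-K1 cells carried Fluo-4 dye, and compounds ran as 11-point, 3-fold dilution series. EC50 and Emax came from four-parameter logistic fits of the FDSS fluorescence-ratio traces.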

[1] abbreviates: hM4-Gqi5 CHO-K1 cells, PAM of EC20 acetylcholine.
[2] abbreviates: Table 3, Human M4, read-out: Emax (% ACh maximum at 30 μM).
Setting [3] is: Table 3, potentiation of EC20 acetylcholine response, CHO-K1 cells.
The mark [4] stands for this setting: Table 4, Human M4, read-out: Emax (% ACh maximum at 30 μM).
Setting [5] is: Table 4, potentiation of EC20 acetylcholine response, CHO-K1 cells.

Drawing on patent US20250002507A1, “7,8-DIHYDRO-5H-1,6-NAPHTHYRIDINE DERIVATIVES AS POSITIVE ALLOSTERIC MODULATORS OF THE MUSCARINIC ACETYLCHOLINE RECEPTOR M4 FOR TREATING NEUROLOGICAL AND PSYCHIATRIC DISORDERS” (Vanderbilt University, priority 2021, published 2025), this text covers Emax and EC50 for 23 molecules.

Read-outs that look alike come from different tables or passages of the source.

Turning to `Cc1c(N2CCc3ncc(-c4cnn(CC5CC5)c4)cc3C2)nn2c(C(F)(F)F)nnc2c1C` [Compound 95, 3-[1-(cyclopropylmethyl)pyrazol-4-yl]-6-[7,8-dimethyl-3-(trifluoromethyl)-[1,2,4]triazolo[4,3-b]pyridazin-6-yl]-7,8-dihydro-5H-1,6-naphthyridine], the Emax at 30 µM (human M4, read-out: Emax) stood at 90%. Besides, under setting [1], the EC50 worked out at 496 nM.

As for `COc1ccncc1-c1cnc2c(c1)CN(c1nn3cnnc3c(C)c1C)CC2` [Compound 41, 6-(7,8-dimethyl-[1,2,4]triazolo[4,3-b]pyridazin-6-yl)-3-(4-methoxy-3-pyridyl)-7,8-dihydro-5H-1,6-naphthyridine], the Emax at 30 µM (human M4, read-out: Emax) is 81%. The EC50 under setting [1] was found to be 442 nM.

Regarding `Cc1cnn(C)c1-c1cnc2c(c1)CN(c1nn3cnnc3c(C)c1C)CC2` [Compound 134, 3-(2,4-dimethylpyrazol-3-yl)-6-(7,8-dimethyl-[1,2,4]triazolo[4,3-b]pyridazin-6-yl)-7,8-dihydro-5H-1,6-naphthyridine], under “human M4, read-out: Emax”, the Emax at 30 µM came to 88%. Also, the EC50 under setting [1] was determined as 299 nM.

Regarding `Cc1c(N2CCc3ncc(-c4cccnc4)cc3C2)nn2c(C(F)(F)F)nnc2c1C` [Compound 257, 6-(7,8-dimethyl-3-(trifluoromethyl)-[1,2,4]triazolo[4,3-b]pyridazin-6-yl)-3-(pyridin-3-yl)-5,6,7,8-tetrahydro-1,6-naphthyridine], under setting [2], the Emax at 30 µM is 78%. Besides, the EC50 under setting [3] was found to be 218 nM.

In the case of `Cc1ccc(-c2cnc3c(c2)CN(c2nn4c(C(F)(F)F)nnc4c(C)c2C)CC3)cn1` [Compound 256, 6-(7,8-dimethyl-3-(trifluoromethyl)-[1,2,4]triazolo[4,3-b]pyridazin-6-yl)-3-(6-methylpyridin-3-yl)-5,6,7,8-tetrahydro-1,6-naphthyridine], the Emax at 30 µM under setting [2] was determined as 78%. The EC50 under setting [3] turned out to be 250 nM.

As for `Cc1cc2nncn2nc1N1CCc2ncc(-c3cnn(C4CC4)c3)cc2C1` [Compound 143, 3-(1-cyclopropylpyrazol-4-yl)-6-(7-methyl-[1,2,4]triazolo[4,3-b]pyridazin-6-yl)-7,8-dihydro-5H-1,6-naphthyridine], the Emax at 30 µM (human M4, read-out: Emax) turned out to be 89%. Moreover, under setting [1], the EC50 stood at 138 nM.

As to `Cc1c(N2CCc3ncc(-c4cnn(Cc5ccccn5)c4)cc3C2)nn2cnnc2c1C` [Compound 24, 6-(7,8-dimethyl-[1,2,4]triazolo[4,3-b]pyridazin-6-yl)-3-[1-(2-pyridylmethyl)pyrazol-4-yl]-7,8-dihydro-5H-1,6-naphthyridine], the Emax at 30 µM (human M4, read-out: Emax) was 94%.

In the case of `Cc1c(N2CCc3ncc(NCc4ccc(C(C)(C)O)cc4)cc3C2)nn2cnnc2c1C` [Compound 17, 2-[4-[[[6-(7,8-dimethyl-[1,2,4]triazolo[4,3-b]pyridazin-6-yl)-7,8-dihydro-5H-1,6-naphthyridin-3-yl]amino]methyl]phenyl]propan-2-ol], the Emax at 30 µM (human M4, read-out: Emax) was 66%. For the same molecule, the EC50 under setting [1] was found to be 936 nM.

Consider `Cc1c(N2CCc3ncc(NC(=O)c4ccc(F)cc4)cc3C2)nn2cnnc2c1C` [Compound 158, N-(6-(7,8-dimethyl-[1,2,4]triazolo[4,3-b]pyridazin-6-yl)-5,6,7,8-tetrahydro-1,6-naphthyridin-3-yl)-4-fluorobenzamide], for which the Emax at 30 µM under setting [2] worked out at 79%. Further, the EC50 under setting [3] was determined as 672 nM.

Consider `Cc1c(N2CCc3ncc(N4CCCn5nccc54)cc3C2)nn2c(Cl)nnc2c1C` [Compound 284, 6-(3-chloro-7,8-dimethyl-[1,2,4]triazolo[4,3-b]pyridazin-6-yl)-3-(6,7-dihydropyrazolo[1,5-a]pyrimidin-4(5H)-yl)-5,6,7,8-tetrahydro-1,6-naphthyridine], for which the Emax at 30 µM under setting [2] is 53%. The EC50 under setting [3] amounted to 545 nM.

As to `Cc1c(N2CCc3ncc(-c4ccc(N5CC6(C5)CC(F)(F)C6)nc4)cc3C2)nn2cnnc2c1C` [Compound 208, 3-(6-(6,6-difluoro-2-azaspiro[3.3]heptan-2-yl)pyridin-3-yl)-6-(7,8-dimethyl-[1,2,4]triazolo[4,3-b]pyridazin-6-yl)-5,6,7,8-tetrahydro-1,6-naphthyridine], under setting [2], the Emax at 30 µM was found to be 96%. Besides, under setting [3], the EC50 turned out to be 463 nM.

As to `Cc1c(N2CCc3ncc(N4CCC(F)(F)CC4)cc3C2)nn2c(C(F)(F)F)nnc2c1C` [Compound 280, 3-(4,4-difluoropiperidin-1-yl)-6-(7,8-dimethyl-3-(trifluoromethyl)-[1,2,4]triazolo[4,3-b]pyridazin-6-yl)-5,6,7,8-tetrahydro-1,6-naphthyridine], under setting [2], the Emax at 30 µM was 85%. Also, under setting [3], the EC50 is 698 nM.

As for `Cc1c(N2CCc3ncc(-c4cnn(CC(F)(F)F)c4)cc3C2)nn2cnnc2c1C` [Compound 98, 6-(7,8-dimethyl-[1,2,4]triazolo[4,3-b]pyridazin-6-yl)-3-[1-(2,2,2-trifluoroethyl)pyrazol-4-yl]-7,8-dihydro-5H-1,6-naphthyridine], the Emax at 30 µM (human M4, read-out: Emax) is 102%. The EC50 under setting [1] amounted to 332 nM.

For `Cc1c(N2CCc3ncc(N4CCCC4)cc3C2)nn2c(C(F)(F)F)nnc2c1C` [Compound 275, 6-(7,8-dimethyl-3-(trifluoromethyl)-[1,2,4]triazolo[4,3-b]pyridazin-6-yl)-3-(pyrrolidin-1-yl)-5,6,7,8-tetrahydro-1,6-naphthyridine], under setting [2], the Emax at 30 µM turned out to be 74%. Besides, under setting [3], the EC50 stood at 933 nM.

Take `Cc1c(N2CCc3ncc(N4CCC5OCCCC5C4)cc3C2)nn2cnnc2c1C` (stereo not drawn) [Compound 25, 6-[6-(7,8-dimethyl-[1,2,4]triazolo[4,3-b]pyridazin-6-yl)-7,8-dihydro-5H-1,6-naphthyridin-3-yl]-2,3,4,4a,5,7,8,8a-octahydropyrano[3,2-c]pyridine]: under “human M4, read-out: Emax”, the Emax at 30 µM is 65%. The EC50 under setting [1] turned out to be 348 nM.

Turning to `Cc1cc2cnc(C)n2nc1N1CCc2ncc(C(F)(F)F)cc2C1` [Compound 341, 6-(3,7-dimethylimidazo[1,5-b]pyridazin-2-yl)-3-(trifluoromethyl)-5,6,7,8-tetrahydro-1,6-naphthyridine], under setting [4], the Emax at 30 µM was 63%. The EC50 under setting [5] was found to be 521 nM.

Turning to `Cc1c(N2CCc3ncc(-c4cnn(C5CCCC5)c4)cc3C2)nn2cnnc2c1C` [Compound 97, 3-(1-cyclopentylpyrazol-4-yl)-6-(7,8-dimethyl-[1,2,4]triazolo[4,3-b]pyridazin-6-yl)-7,8-dihydro-5H-1,6-naphthyridine], where the note is “human M4, read-out: Emax”, the Emax at 30 µM was 87%. In addition, under setting [1], the EC50 came out at 198 nM.

Consider `Cc1cc2n(n1)CCCN2c1cnc2c(c1)CN(c1nn3c(C(F)(F)F)nnc3c(C)c1C)CC2` [Compound 320, 6-(7,8-dimethyl-3-(trifluoromethyl)-[1,2,4]triazolo[4,3-b]pyridazin-6-yl)-3-(2-methyl-6,7-dihydropyrazolo[1,5-a]pyrimidin-4(5H)-yl)-5,6,7,8-tetrahydro-1,6-naphthyridine], for which the Emax at 30 µM under setting [4] stood at 76%. For the same molecule, the EC50 under setting [5] stood at 121 nM.

For the molecule `Cc1c(N2CCc3ncc(Nc4ncccc4F)cc3C2)nn2cnnc2c1C` [Compound 80, 6-(7,8-dimethyl-[1,2,4]triazolo[4,3-b]pyridazin-6-yl)-N-(3-fluoro-2-pyridyl)-7,8-dihydro-5H-1,6-naphthyridin-3-amine], where the note is “human M4, read-out: Emax”, the Emax at 30 µM came out at 72%. For the same molecule, under setting [1], the EC50 stood at 176 nM.

As to `[2H]C1([2H])Cc2ncc(Nc3ccncc3C)cc2C([2H])([2H])N1c1nn2cnnc2c(C)c1C` [Compound 357, 6-(7,8-dimethyl-[1,2,4]triazolo[4,3-b]pyridazin-6-yl)-N-(3-methylpyridin-4-yl)-5,6,7,8-tetrahydro-1,6-naphthyridin-5,5,7,7-d4-3-amine], the Emax at 30 µM under setting [4] is 74%. Also, the EC50 under setting [5] stood at 168 nM.

Regarding `Cc1c(N2CCc3ncc(N4CCOc5ncccc54)cc3C2)nn2c(C(F)(F)F)nnc2c1C` [Compound 282, 1-(6-(7,8-dimethyl-3-(trifluoromethyl)-[1,2,4]triazolo[4,3-b]pyridazin-6-yl)-5,6,7,8-tetrahydro-1,6-naphthyridin-3-yl)-2,3-dihydro-1H-pyrido[2,3-b][1,4]oxazine], under setting [2], the Emax at 30 µM was determined as 87%. Besides, the EC50 under setting [3] is 64 nM.

`Cc1c(N2CCc3ncc(C(F)(F)F)cc3C2)nn2cnnc2c1C(F)(F)F` [Compound 351, 6-(7-Methyl-8-(trifluoromethyl)-[1,2,4]triazolo[4,3-b]pyridazin-6-yl)-3-(trifluoromethyl)-5,6,7,8-tetrahydro-1,6-naphthyridine]: the Emax at 30 µM under setting [4] came to 77%. Besides, under setting [5], the EC50 came out at 1400 nM.

Consider `Cc1c(N2CCc3ncc(N4CCCc5ccccc54)cc3C2)nn2c(C(F)(F)F)nnc2c1C` [Compound 231, 3-(3,4-dihydroquinolin-1(2H)-yl)-6-(7,8-dimethyl-3-(trifluoromethyl)-[1,2,4]triazolo[4,3-b]pyridazin-6-yl)-5,6,7,8-tetrahydro-1,6-naphthyridine], for which the Emax at 30 µM under setting [2] was determined as 65%. Further, the EC50 under setting [3] was found to be 1930 nM.

In general, Emax refers to the maximal effect, on the per cent scale that the assay sets. In general, EC50 refers to the concentration giving half of the maximal effect.
